Results taken from patent US7276491B2, “Anticoagulant and fibrinolytic therapy using p38 MAP kinase inhibitors” (Boehringer Ingelheim Pharmaceuticals, Inc., priority 2002, dated 2007).

Tested on: LPS-induced activation of coagulation, fibrinolysis and the vascular endothelium
Assay: LPS study: randomized, double-blind, placebo-controlled human endotoxemia experiment
Type: in vivo
[1] = healthy male volunteers, high dose (600 mg oral) 3 h before LPS 4 ng/kg i.v.

Structure (SMILES): Cc1ccc(-n2nc(C(C)(C)C)cc2NC(=O)Nc2ccc(OCCN3CCOCC3)c3ccccc23)cc1 [formula (III), 1-[3-tert-butyl-1-p-tolyl-1H-pyrazol-5-yl]-3-[4-(2-morpholin-4-yl-ethoxy)naphthalen-1-yl]-urea]
- LPS-elicited increase in plasma levels of sE-selectin (endothelial cell activation) [1]: attenuated
- LPS-elicited increase in plasma levels of vWF (endothelial cell activation) [1]: attenuated
- LPS-induced coagulation activation (increase in plasma prothrombin fragment F1+2 concentrations) (healthy male volunteers, high end dosing (600 mg oral) 3 h before LPS 4 ng/kg i.v., vs placebo): inhibited LPS-induced coagulation activation, both delaying and diminishing the increase in plasma F1+2 concentrations
- activation of the fibrinolytic system (healthy male volunteers, oral dose 3 h before LPS 4 ng/kg i.v., tPA, PAI-1, PAPc assayed): even stronger inhibitory effect
- IL-6 concentrations (subjects treated during low grade endotoxemia (LPS i.v.)): reduced IL-6 concentrations
